From patent publication US5703085A, “Xanthine derivatives” (Kyowa Hakko Kogyo Co., Ltd., priority 1994, dated 1997)

Target: T1, A2 Receptor (Rattus norvegicus, UniProt P30543)
T1 construct: from tissue; host or cells: rat corpus striatum (membrane suspension)
Test: Adenosine A2 receptor binding test (inhibition of 3H-CGS 21680 binding)
Conditions: rat corpus striatum, 3H-CGS 21680 4.0 nM
Description: Adenosine Receptor Antagonistic Activity (Adenosine A2 Receptor Binding Test)
The test was conducted according to the method of Bruns et al. [Mol. Pharmacol., 29, 331 (1986)] with slight modification.
Corpus striatum of a rat was suspended in ice-cooled 50 mM Tris (hydroxymethyl) aminomethane hydrochloride (Tris HCl) buffer (pH 7.7) by using Polytron homogenizer (manufactured by Kinematica Co.). The suspension was centrifuged (50,000×g, 10 minutes), and the precipitate was suspended again in the same amount of 50 mM Tris HCl buffer. The suspension was centrifuged under the same conditions, and the final precipitate was suspended in 50 mM Tris HCl buffer [containing 10 mM magnesium chloride and 0.02 unit/mg tissue of adenosine deaminase (manufactured by Sigma Co.)] to give a tissue concentration of 5 mg (wet weight)/ml.
To 1 ml of the tissue suspension thus prepared were added 50 μl of tritium labeled CGS 21680 {^3 H-2-[p-(2-carboxyethyl) phenethylamino]-5'-(N-ethylcarboxamide)-adenosine: 40 Ci/mmol; manufactured by New England Nuclear Co. [J. Pharmacol. Exp. Ther., 251, 888 (1989)]} (final concentration: 4.0 nM) and 50 μl of a test compound. The resulting mixture was allowed to stand at 25° C. for 120 minutes and then rapidly filtered by suction through a glass fiber filter (GF/C; manufactured by Whatman Co.). The filter was immediately washed three times with 5 ml each of ice-cooled 50 mM Tris HCl buffer, and transferred to a vial, and a scintillator (EX-H; manufactured by Wako Pure Chemical Industries, Ltd.) was added thereto. The radioactivity on the filter was determined with a liquid scintillation counter (manufactured by Packard Instrument Co.).
The inhibition rate of the test compound against the binding of A2 receptors (^3 H-CGS 21680 binding) was calculated by the following equation: [formula] [Notes]B: Amount of the binding in the presence of the test compound.
T: Amount of the total binding.
N: Amount of the nonspecific binding.
Amount of the total binding means the amount of radioactivity of ^3 H-CGS 21680 bound in the absence of the test compound. Amount of the nonspecific binding means the amount of radioactivity of ^3 H-CGS 21680 bound in the presence of 100 μM cyclopentyladenosine (CPA; manufactured by Sigma Co.). Amount of the binding in the presence of the test compound means the amount of radioactivity of ^3 H-CGS 21680 bound in the presence of the test compound at various levels of concentrations.

T1 sequence (P30543 whole entry): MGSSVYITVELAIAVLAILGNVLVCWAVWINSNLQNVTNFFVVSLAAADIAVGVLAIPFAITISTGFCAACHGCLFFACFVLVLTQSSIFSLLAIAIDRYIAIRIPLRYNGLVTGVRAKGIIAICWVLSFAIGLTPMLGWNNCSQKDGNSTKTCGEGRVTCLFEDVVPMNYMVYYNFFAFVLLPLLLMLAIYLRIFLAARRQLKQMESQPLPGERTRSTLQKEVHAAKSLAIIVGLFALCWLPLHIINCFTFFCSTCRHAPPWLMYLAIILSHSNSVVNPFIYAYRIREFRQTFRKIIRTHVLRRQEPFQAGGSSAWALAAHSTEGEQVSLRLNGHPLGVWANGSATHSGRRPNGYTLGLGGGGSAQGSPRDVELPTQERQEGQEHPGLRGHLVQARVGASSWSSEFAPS

| SMILES | A2 Receptor Inhibition Rate (%) (10^-6 M) | A2 Receptor Inhibition Rate (%) (10^-7 M) |
| --- | --- | --- |
| CCCn1c(=O)c2c(nc(/C=C/c3ccc(OC(C)=O)c(OC(C)=O)c3)n2C)n(CCC)c1=O [Compound 1, (E)-8-(3,4-Diacetoxystyryl)-7-methyl-1,3-dipropylxanthine] | 93% | 89% |
| CCCn1c(=O)c2c(nc(/C=C/c3ccc(OC)c(OC(C)=O)c3)n2C)n(CCC)c1=O [Compound 3, (E)-8-(3-Acetoxy-4-methoxystyryl)-7-methyl-1,3-dipropylxanthine] | 96% | 61% |
| CCCn1c(=O)c2c(nc(/C=C/c3cc(OC(C)=O)cc(OC(C)=O)c3)n2C)n(CCC)c1=O [Compound 9, (E)-8-(3,5-Diacetoxystyryl)-7-methyl-1,3-dipropylxanthine] | 96% | 88% |
| C=CCn1c(=O)c2c(nc(/C=C/c3ccc(OC(C)=O)c(OC)c3)n2C)n(CC=C)c1=O [Compound 15, (E)-8-(4-Acetoxy-3-methoxystyryl)-1,3-diallyl-7-methylxanthine] | 91% | 85% |
| CCn1c(=O)c2c(nc(/C=C/c3ccc(OC)c(OC(C)=O)c3)n2C)n(CC)c1=O [Compound 16, (E)-8-(3-Acetoxy-4-methoxystyryl)-1,3-diethyl-7-methylxanthine] | 96% | 81% |
| C=CCn1c(=O)c2c(nc(/C=C/c3cc(OC)c(OC(C)=O)c(OC)c3)n2C)n(CC=C)c1=O [Compound 19, (E)-8-(4-Acetoxy-3,5-dimethoxystyryl)-1,3-diallyl-7-methylxanthine] | 96% | 91% |
| CCn1c(=O)c2c(nc(/C=C/c3cccc(OC(C)=O)c3)n2C)n(CC)c1=O [Compound 21, (E)-8-(3-Acetoxystyryl)-1,3-diethyl-7-methylxanthine] | 96% | 81% |
| CCn1c(=O)c2c(nc(/C=C/c3cccc(OC(=O)c4ccccc4)c3)n2C)n(CC)c1=O [Compound 22, (E)-8-(3-Benzoyloxystyryl)-1,3-diethyl-7-methylxanthine] | 99% | 92% |
| CCn1c(=O)c2c(nc(/C=C/c3cc(OC)ccc3OC(C)=O)n2C)n(CC)c1=O [Compound 23, (E)-8-(2-Acetoxy-5-methoxystyryl)-1,3-diethyl-7-methylxanthine] | 101% | 90% |
| CCn1c(=O)c2c(nc(/C=C/c3cccc(OC)c3OC(C)=O)n2C)n(CC)c1=O [Compound 25, (E)-8-(2-Acetoxy-3-methoxystyryl)-1,3-diethyl-7-methylxanthine] | 101% | 95% |
| CCn1c(=O)c2c(nc(/C=C/c3cccc(OC(C)=O)c3OC(C)=O)n2C)n(CC)c1=O [Compound 26, (E)-8-(2,3-Diacetoxystyryl)-1,3-diethyl-7-methylxanthine] | 101% | 75% |
